The inhibition is the drop in the measured response relative to a control, in per cent.

The text below walks through data of ChEMBL document CHEMBL4190187, “Discovery of pyrazolopyrimidine derivatives as novel inhibitors of ataxia telangiectasia and rad3 related protein (ATR)” (Bioorg Med Chem Lett, 2017).

For data set [1], the target named is Homeodomain-interacting protein kinase 1 (Homo sapiens) (UniProt Q86Z02). As to the kind of experiment: Inhibition of recombinant human HIPK1 (158 to 555 residues) at 1 uM using myelin basic protein as substrate after 40 mins in presence of [gamma-33P]ATP by scintillation counting method.
Homeodomain-interacting protein kinase 1 (Homo sapiens), sequence (Q86Z02 whole entry, looked up, the tested form may be a part): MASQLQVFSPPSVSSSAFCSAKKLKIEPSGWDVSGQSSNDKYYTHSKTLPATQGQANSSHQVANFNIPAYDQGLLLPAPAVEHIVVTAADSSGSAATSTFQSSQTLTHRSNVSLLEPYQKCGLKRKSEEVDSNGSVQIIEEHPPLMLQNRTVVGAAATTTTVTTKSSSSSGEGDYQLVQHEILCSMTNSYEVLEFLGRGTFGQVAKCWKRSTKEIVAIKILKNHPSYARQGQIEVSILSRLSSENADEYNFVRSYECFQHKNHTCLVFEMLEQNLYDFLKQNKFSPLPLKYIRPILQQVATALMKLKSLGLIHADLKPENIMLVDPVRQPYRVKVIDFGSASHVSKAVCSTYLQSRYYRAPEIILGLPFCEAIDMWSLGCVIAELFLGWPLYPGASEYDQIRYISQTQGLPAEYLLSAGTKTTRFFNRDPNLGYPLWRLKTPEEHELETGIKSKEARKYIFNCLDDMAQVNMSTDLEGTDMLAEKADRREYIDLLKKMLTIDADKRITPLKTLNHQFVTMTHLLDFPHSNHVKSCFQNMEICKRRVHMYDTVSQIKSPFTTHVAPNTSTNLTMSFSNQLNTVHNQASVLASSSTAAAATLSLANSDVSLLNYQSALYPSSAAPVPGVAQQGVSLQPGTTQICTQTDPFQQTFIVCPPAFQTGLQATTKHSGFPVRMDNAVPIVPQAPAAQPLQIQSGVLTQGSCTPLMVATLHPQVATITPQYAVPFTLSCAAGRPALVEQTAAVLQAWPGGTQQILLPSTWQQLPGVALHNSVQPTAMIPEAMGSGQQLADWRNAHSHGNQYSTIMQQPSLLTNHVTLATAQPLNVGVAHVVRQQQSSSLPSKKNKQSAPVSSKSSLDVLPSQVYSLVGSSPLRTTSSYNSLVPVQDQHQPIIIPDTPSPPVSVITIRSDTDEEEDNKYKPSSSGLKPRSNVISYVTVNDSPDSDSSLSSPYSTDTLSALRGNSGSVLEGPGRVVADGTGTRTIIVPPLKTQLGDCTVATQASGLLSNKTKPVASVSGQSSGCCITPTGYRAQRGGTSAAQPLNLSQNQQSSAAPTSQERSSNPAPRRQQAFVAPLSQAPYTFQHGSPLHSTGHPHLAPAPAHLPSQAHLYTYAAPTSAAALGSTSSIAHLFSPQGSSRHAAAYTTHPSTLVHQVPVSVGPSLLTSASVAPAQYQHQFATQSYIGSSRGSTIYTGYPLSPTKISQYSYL
The target in data set [2] is MAPK/MAK/MRK overlapping kinase (Homo sapiens) (UniProt Q9UQ07). Put plainly: Inhibition of recombinant human MOK (1 to 343 residues) at 1 uM using RSRSRSRSRSRSRSR as substrate after 40 mins in presence of [gamma-33P]ATP by scintillation counting method.
Data set [3] addresses Protein kinase C beta type (Homo sapiens) (UniProt P05771). As to the kind of experiment: Inhibition of recombinant human PKCbeta1 (2 to end residues) at 1 uM using histone H1 as substrate after 40 mins in presence of [gamma-33P]ATP by scintillation counting method.
Data set [4] concerns the target Serine/threonine-protein kinase ATR (Homo sapiens, UniProt Q13535). Put plainly: Inhibition of human recombinant FLAG-tagged full length ATR expressed in mammalian cell line co-expressing human recombinant cMyc-tagged full length ATRIP at 1 uM using GST-cMyc-p53 as substrate after 40 mins in presence of [gamma-33P]ATP by scintillation counting method.
Data set [5] addresses Interferon-induced, double-stranded RNA-activated protein kinase (Homo sapiens) (UniProt P19525). As to the kind of experiment: Inhibition of recombinant human PKR (501 to end residues) at 1 uM using AKRRRLSSLRA as substrate after 40 mins in presence of [gamma-33P]ATP by scintillation counting method.
For data set [6], the system named is Mast/stem cell growth factor receptor Kit (Homo sapiens), P10721 [V654A]. As to the kind of experiment: Inhibition of recombinant human cKit V654A mutant (544 to end residues) at 1 uM using GGMEDIYFEFMGGKKK as substrate after 40 mins in presence of [gamma-33P]ATP by scintillation counting method.
The target in data set [7] is Insulin-like growth factor 1 receptor (Homo sapiens) (UniProt P08069). Put plainly: Inhibition of recombinant human activated IGF-1R (959 to end residues) at 1 uM using KKKSPGEYVNIEFG as substrate after 40 mins in presence of [gamma-33P]ATP by scintillation counting method.
Data set [8] in a line: Apparent volume of distribution in mouse at 2 mg/kg, iv or 10 mg/kg, po. Type of data set: ADME, organism-based. The conditions noted are these: in vivo, read-out: Vz.
Data set [9] concerns the target Protein-tyrosine kinase 6 (Homo sapiens) (UniProt Q13882). Put plainly: Inhibition of recombinant full-length human BRK at 10 uM using poly(Glu,Tyr) 4:1 as substrate after 40 mins in presence of [gamma-33P]ATP by scintillation counting method.
Data set [10] deals with Insulin receptor-related protein (Homo sapiens) (UniProt P14616). Put plainly: Inhibition of recombinant human IRR (943 to 1266 residues) at 1 uM using myelin basic protein as substrate after 40 mins in presence of [gamma-33P]ATP by scintillation counting method.
Data set [11] deals with Mast/stem cell growth factor receptor Kit (Homo sapiens), P10721 [D816V]. As to the kind of experiment: Inhibition of recombinant human cKit D816V mutant (544 to end residues) at 1 uM using poly(Glu,Tyr) 4:1 as substrate after 40 mins in presence of [gamma-33P]ATP by scintillation counting method.
The target of data set [12] is Cytoplasmic tyrosine-protein kinase BMX (Homo sapiens) (UniProt P51813). As to the kind of experiment: Inhibition of recombinant full-length human BMX at 1 uM using poly(Glu,Tyr) 4:1 as substrate after 40 mins in presence of [gamma-33P]ATP by scintillation counting method.
Data set [13] deals with Ephrin type-B receptor 2 (Homo sapiens) (UniProt P29323). As to the kind of experiment: Inhibition of recombinant human EPHB2 (560 to end residues) at 1 uM using poly(Glu,Tyr) 4:1 as substrate after 40 mins in presence of [gamma-33P]ATP by scintillation counting method.
For data set [14], the system named is Hepatocyte growth factor receptor (Homo sapiens), P08581 [D1246H]. As to the kind of experiment: Inhibition of recombinant human Met D1246H mutant (974 to end residues) at 1 uM using KKKGQEEEYVFIE as substrate after 40 mins in presence of [gamma-33P]ATP by scintillation counting method.
The subject of data set [15] is Epidermal growth factor receptor (Homo sapiens), P00533 [T790M]. As to the kind of experiment: Inhibition of recombinant human EGFR T790M mutant (696 to end residues) at 1 uM using GGMEDIYFEFMGGKKK as substrate after 40 mins in presence of [gamma-33P]ATP by scintillation counting method.
Data set [16] concerns the target Serine/threonine-protein kinase MAK (Homo sapiens) (UniProt P20794). As to the kind of experiment: Inhibition of recombinant full-length human MAK at 1 uM using RRRFRPASPLRGPPK as substrate after 120 mins in presence of [gamma-33P]ATP by scintillation counting method.
For data set [17], the target named is cGMP-dependent protein kinase 1 (Homo sapiens) (UniProt Q13976). As to the kind of experiment: Inhibition of recombinant full-length human PKG1alpha at 1 uM using RRRLSFAEPG as substrate after 40 mins in presence of [gamma-33P]ATP by scintillation counting method.
cGMP-dependent protein kinase 1 (Homo sapiens), sequence (Q13976 whole entry): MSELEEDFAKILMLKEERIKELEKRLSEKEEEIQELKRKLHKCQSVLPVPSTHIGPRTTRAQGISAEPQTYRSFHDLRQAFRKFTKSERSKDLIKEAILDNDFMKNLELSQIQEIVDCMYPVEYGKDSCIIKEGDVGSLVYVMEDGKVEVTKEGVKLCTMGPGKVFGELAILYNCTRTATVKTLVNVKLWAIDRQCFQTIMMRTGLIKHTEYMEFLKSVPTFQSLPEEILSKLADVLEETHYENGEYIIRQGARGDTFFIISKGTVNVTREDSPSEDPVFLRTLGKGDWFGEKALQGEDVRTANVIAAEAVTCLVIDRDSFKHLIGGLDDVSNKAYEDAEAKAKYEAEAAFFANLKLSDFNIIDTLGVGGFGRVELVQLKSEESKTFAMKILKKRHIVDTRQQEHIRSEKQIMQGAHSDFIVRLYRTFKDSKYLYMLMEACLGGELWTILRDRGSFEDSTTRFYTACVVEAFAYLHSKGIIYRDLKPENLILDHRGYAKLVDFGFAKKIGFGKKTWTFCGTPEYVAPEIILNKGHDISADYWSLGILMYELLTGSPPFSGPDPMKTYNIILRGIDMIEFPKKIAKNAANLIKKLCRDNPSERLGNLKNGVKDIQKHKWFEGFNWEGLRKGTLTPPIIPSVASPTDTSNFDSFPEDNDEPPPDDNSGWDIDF
The target in data set [18] is Tyrosine-protein kinase CSK (Homo sapiens) (UniProt P41240). Put plainly: Inhibition of recombinant full-length human CSK at 1 uM using poly(Glu,Tyr) 4:1 as substrate after 40 mins in presence of [gamma-33P]ATP by scintillation counting method.
Data set [19] concerns the target Tyrosine-protein kinase ABL1 (Homo sapiens) (UniProt P00519). Put plainly: Inhibition of recombinant full-length human Abl at 1 uM using EAIYAAPFAKKK as substrate after 40 mins in presence of [gamma-33P]ATP by scintillation counting method.
In data set [20] the target is Serine/threonine-protein kinase tousled-like 1 (Homo sapiens) (UniProt Q9UKI8). As to the kind of experiment: Inhibition of recombinant full-length human TLK1 at 1 uM using casein as substrate after 40 mins in presence of [gamma-33P]ATP by scintillation counting method.
Data set [21] concerns the target Serine/threonine-protein kinase SIK1 (Homo sapiens) (UniProt P57059). As to the kind of experiment: Inhibition of recombinant human SIK (1 to 281 residues) at 1 uM using AMARAASAAALARRR as substrate after 40 mins in presence of [gamma-33P]ATP by scintillation counting method.
For data set [22], the target named is Ephrin type-B receptor 1 (Homo sapiens) (UniProt P54762). As to the kind of experiment: Inhibition of recombinant human EPHB1 (564 to end residues) at 1 uM using KVEKIGEGTYGVVYK as substrate after 40 mins in presence of [gamma-33P]ATP by scintillation counting method.
Ephrin type-B receptor 1 (Homo sapiens), sequence (P54762 whole entry): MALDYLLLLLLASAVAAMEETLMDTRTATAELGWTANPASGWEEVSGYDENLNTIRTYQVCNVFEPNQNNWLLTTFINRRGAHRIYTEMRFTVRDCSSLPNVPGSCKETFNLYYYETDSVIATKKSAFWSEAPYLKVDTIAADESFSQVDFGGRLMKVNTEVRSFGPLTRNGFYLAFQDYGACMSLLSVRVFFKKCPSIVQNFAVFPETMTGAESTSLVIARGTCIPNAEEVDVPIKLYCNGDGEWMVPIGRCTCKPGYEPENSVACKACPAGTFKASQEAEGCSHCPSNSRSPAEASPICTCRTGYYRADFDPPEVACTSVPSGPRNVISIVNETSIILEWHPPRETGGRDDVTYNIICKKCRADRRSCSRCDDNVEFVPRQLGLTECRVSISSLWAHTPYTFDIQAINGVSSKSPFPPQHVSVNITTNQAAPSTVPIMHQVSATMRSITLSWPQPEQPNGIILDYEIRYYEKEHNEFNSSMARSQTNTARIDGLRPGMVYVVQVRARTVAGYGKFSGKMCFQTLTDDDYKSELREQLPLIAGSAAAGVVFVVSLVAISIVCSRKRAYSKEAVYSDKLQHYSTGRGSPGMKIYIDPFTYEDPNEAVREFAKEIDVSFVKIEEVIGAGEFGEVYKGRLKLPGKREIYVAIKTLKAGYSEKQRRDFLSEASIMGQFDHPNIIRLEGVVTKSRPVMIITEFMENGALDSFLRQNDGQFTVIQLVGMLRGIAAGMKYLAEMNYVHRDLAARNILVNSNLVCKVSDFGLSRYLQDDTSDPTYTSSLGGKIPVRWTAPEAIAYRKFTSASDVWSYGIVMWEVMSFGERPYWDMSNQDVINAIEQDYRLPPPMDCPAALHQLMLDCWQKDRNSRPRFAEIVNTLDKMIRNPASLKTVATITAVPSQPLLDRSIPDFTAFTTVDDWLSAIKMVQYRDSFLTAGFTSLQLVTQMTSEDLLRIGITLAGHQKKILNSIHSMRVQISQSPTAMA
In data set [23] the target is Serine/threonine-protein kinase 17B (Homo sapiens) (UniProt O94768). As to the kind of experiment: Inhibition of recombinant full-length human DRAK2 at 1 uM using KKRPQRRYSNVF as substrate after 120 mins in presence of [gamma-33P]ATP by scintillation counting method.
Data set [24] addresses Ephrin type-B receptor 3 (Homo sapiens) (UniProt P54753). As to the kind of experiment: Inhibition of recombinant human EPHB3 (599 to 920 residues) at 1 uM using poly(Glu,Tyr) 4:1 as substrate after 40 mins in presence of [gamma-33P]ATP by scintillation counting method.

Tyrosine-protein kinase ABL1 (Homo sapiens), sequence (P00519 whole entry): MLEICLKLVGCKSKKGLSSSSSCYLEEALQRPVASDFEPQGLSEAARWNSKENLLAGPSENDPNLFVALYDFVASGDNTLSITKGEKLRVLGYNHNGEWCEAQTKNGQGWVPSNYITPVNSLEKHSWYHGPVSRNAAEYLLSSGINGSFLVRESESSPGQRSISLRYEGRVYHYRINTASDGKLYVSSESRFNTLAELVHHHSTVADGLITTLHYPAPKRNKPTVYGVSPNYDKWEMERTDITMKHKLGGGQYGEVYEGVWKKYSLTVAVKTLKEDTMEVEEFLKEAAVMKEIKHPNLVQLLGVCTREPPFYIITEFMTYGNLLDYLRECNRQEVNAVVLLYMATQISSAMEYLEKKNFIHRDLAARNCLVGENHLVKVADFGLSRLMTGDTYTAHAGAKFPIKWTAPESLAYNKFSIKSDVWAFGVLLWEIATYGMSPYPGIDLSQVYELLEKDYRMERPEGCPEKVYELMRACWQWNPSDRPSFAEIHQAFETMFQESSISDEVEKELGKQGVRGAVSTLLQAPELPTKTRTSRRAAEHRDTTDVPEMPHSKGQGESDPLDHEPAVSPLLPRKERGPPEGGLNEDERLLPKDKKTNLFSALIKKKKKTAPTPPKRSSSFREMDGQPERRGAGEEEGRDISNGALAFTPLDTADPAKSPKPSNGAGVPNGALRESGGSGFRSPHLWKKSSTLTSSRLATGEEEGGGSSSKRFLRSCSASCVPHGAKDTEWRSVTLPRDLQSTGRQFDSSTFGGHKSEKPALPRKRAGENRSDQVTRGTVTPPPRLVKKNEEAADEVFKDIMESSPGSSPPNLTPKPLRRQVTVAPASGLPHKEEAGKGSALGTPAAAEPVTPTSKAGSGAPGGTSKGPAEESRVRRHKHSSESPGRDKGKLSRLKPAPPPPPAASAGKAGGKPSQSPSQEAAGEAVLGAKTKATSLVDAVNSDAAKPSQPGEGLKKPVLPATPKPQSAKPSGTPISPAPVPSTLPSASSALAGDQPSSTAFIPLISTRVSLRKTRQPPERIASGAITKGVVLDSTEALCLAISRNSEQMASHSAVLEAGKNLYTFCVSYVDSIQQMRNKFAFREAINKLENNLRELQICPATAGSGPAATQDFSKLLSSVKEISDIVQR
Serine/threonine-protein kinase SIK1 (Homo sapiens), sequence (P57059 whole entry, the tested form may be a part): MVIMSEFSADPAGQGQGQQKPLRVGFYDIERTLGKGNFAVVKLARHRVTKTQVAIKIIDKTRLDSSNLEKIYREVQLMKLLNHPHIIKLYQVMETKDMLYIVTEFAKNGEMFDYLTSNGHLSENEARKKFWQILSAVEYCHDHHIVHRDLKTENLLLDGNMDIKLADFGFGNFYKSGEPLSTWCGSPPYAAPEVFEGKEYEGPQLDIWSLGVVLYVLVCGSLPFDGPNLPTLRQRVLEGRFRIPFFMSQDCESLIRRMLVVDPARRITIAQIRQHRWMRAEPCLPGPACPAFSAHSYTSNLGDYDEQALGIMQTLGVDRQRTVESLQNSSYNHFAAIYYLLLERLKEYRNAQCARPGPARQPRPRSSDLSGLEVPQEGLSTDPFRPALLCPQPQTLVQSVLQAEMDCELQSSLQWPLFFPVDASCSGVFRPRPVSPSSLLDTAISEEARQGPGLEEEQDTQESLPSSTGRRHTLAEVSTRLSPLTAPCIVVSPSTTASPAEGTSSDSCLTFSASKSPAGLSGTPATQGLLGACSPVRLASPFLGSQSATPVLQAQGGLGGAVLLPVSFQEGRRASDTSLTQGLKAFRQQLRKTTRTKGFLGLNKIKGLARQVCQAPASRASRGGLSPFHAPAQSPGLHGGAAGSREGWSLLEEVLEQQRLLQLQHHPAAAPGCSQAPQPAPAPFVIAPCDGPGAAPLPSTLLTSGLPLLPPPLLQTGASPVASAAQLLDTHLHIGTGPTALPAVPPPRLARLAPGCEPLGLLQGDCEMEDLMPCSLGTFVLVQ

Take `CS(=O)(=O)c1ccc(-n2nc(-c3cnc4[nH]ccc4c3)c3c(N)ncnc32)cc1`: the inhibition was -2% in data set [1]; 59% in data set [2]; 6% in data set [3]; 96% in data set [4]; 13% in [5]; 30% in [6]. The inhibition is 11% in data set [7]; 102% in [9]; -7% in [10]; -2% in data set [11]; 47% in data set [12]; 2% in [13]. Further, the inhibition in [14] was 1%; in data set [15], 22%; in data set [16], 2%; in data set [17], -8%; in [18], 3%; in data set [19] it was 66%. Moreover, the inhibition in data set [20] is 3%; in data set [21] it was 35%; in data set [22], 22%; in data set [23], 7%; in data set [24] it was -2%. In [8], the Vd was found to be 2.15 L/kg.
